Measurements from patent publication US20160237158A1, “Methods and Compositions for Targeting Tumor Microenvironment and for preventing Metastasis” (INSTITUT NATIONAL DE LA SANTÉ ET DA LA RECHERCHE MÉDICALE …, priority 2013, published 2016).

Legend:
STAT3 = STAT3 phosphorylation in fibroblasts (western blot); type: cell-based, human; conditions: hDF stimulated by TGFβ1
Source text: (§1) For western blot analysis, antibodies against STAT3 (#9134), pY705-STAT3 (#9145), SMAD2 (#3122), pSer465/467-SMAD2 (#3108), pY1022/1023-JAK1 (#3331), MLC2 (#3672), pThr18/19-MLC2 (#3674) were purchased from Cell Signaling (Cell Signaling Technology, Beverly Mass.), α-tubulin from sigma (T4026, Sigma, Saint Louis, Mo.); JAK1 from Biolegend (#604402, Biolegend, San Diego, Calif.), GP-130 (#sc-655) and RhoA (#sc-418, Santa Cruz Biotechnology, Santa Cruz, Calif.), and alpha-smooth muscle actin (α-SMA) from Abcam (#Ab5694, Abcam, Cambridge, Mass.). For immunofluorescence staining, antibodies against α-SMA and fibronectin were purchased from Sigma (#A2547 and F3648 respectively, Sigma, Saint Louis, Mo.). Chemical inhibitors used: Pyridone 6 (#42009, Calbiochem, Los Angeles, Calif.) was used at […], SB431542 (#1614, Tocris bioscience, Ellisville, Mo.) at 10 μM, Y27632 (#1254, Tocris bioscience, Ellisville, Mo.) and Actinomycin D (#856258, Sigma, Saint Louis, USA) at 5 μg/ml.
For immunoblotting analysis, cells were lysed on ice in lysis buffer (25 mM Tris (pH 6.8), 2% Sodium dodecyl sulfate (SDS), 5% glycerol, 1% beta-mercaptoethanol, 0.01% bromophenol blue). Equal amounts of protein from each sample were loaded on sodium dodecyl sulfate-polyacrylamide gel electrophoresis, separated, and transferred onto nitrocellulose. The immunoblots were blocked by incubation in 5% bovine serum albumin, 10 mM Tris-HCl (ph7.5), 500 mM NaCl, 0.1% Tween 20 for 30 min at room temperature, probed with specific antibodies and then with secondary antibodies using common classical methods. Immunodetection was performed using chemiluminescent HRP subtrate (#WBKLS0500, Millipore, Billerica, Mass.).

hDF [1] = assay: Fibronectin expression in hDF; type: cell-based, human; conditions: TGFβ1 stimulation
Protocol: Cells were grown on glass coverslips, fixed in 3% paraformaldehyde for 20 min at room temperature, rinsed twice in PBS and in 50 mM NH4Cl for 10 min and permeabilized with 0.5% Triton X-100 for 5 min. Cells were next blocked in PBS containing 1% bovine serum albumin (BSA) for 30 min and incubated with anti-alpha smooth muscle actin (1/400), or anti-fibronectin (1/400) antibodies in blocking buffer overnight at 4° C. After two washes in PBS, cells were incubated in the presence of a secondary antibody conjugated to Alexa 488 (1/400) for 40 min, rinsed twice in PBS, stained with DAPI (2 ug/ml) for 5 min, rinsed in water and the coverslips mounted onto glass slides using mounting media.

fibroblasts [2] = assay: Fibroblast contractility (collagen lattices) and pro-invasive activity (organotypic invasion) induced by human tumour cell conditioned media; type: cell-based; design: key to Fibroblasts contractile & pro-invasive phenotype: +: induction; −: no induction
Protocol: (§2) In this assay, hDF or CAFs were cultured during one week in serum-free medium (with either vehicle or cytokines) or CM before embedding in matrix gel. 5×10^5 fibroblasts were embedded in a 1 ml mixture of collagen I and Matrigel18. After the gel was set at 37° C. for 1 h, 5×10^5 SCC12 were plated on top of the gel in complete media. The next day, the gel was lifted onto individual collagen coated nylon discs resting on metal bridges and fed from underneath with daily changes of complete media (with either vehicle or inhibitors), allowing the epithelial layer to grow at an air-liquid interface.
(§3) After 5 days, cultures were fixed (4% paraformaldehyde+0.25% glutaraldehyde in PBS) and processed for haematoxylin and eosin (H&E) staining by standard methods. Invasion assay was measuring the total area of SCC cells and the area of non-invading SCC cells using imageJ software (http://rsbweb.nih.gov/ij/). The value of invasion index shown is the average 1−(non-invading area/total area) of at least ten fields from three or more independent experiments. Error bars are the standard deviation.
(§4) 2.5×10^4 Fibroblasts were embedded in 100 μl of matrix gel (the Collagen-Matrigel mixture used for organotypic invasion assays) and plated into wells of a 96 well plate^57. After 1 h at 37° C., the matrices were overlaid with 100 μl serum-free medium (with either vehicle, cytokines or inhibitors) or CM. Every 2 days, medium was changed and at day 6 the gels were photographed and the respective diameters of the well and gel were measured using ImageJ. The percentage contraction was calculated using the formula 100*(well diameter−gel diameter)/well diameter.
(§5) Neutralizing antibody against LIF (AB-250-NA, R&D, Minneapolis, Minn.), IL-6 R (AB-227-NA, R&D) or TGF beta-1,2,3 (MAB1835, R&D) were used at 10 μg/ml otherwise stated. Neutralizing antibody were incubated one hour with conditioned media before being used for matrix remodelling assay and fibroblasts stimulation to neutralize the biological activity of selected cytokines.
(§6) Cancer Cells were grown to confluence, washed twice with PBS and then incubated in serum-free medium at 37° C. After 48 hours, conditioned medium was collected, centrifugated at 5000 g for 5 minutes to remove cell debris and the supernatant stored at −80° C. For immunobloting analysis, fibroblasts were stimulated with cancer cells conditioned media for 5 min, otherwise stated, and lysed as described in the immunbloting section. To analyse LIF secretion upon TGFβ-1 stimulation, fibroblasts were stimulated with 2 ng/ml TGF beta-1 for 1, 4, 24 or 48 h in serum-free medium and conditioned media was prepared as below for ELISA analysis.

fibroblasts [3] = assay: Fibroblast contractility and pro-invasive activity induced by murine breast carcinoma cell conditioned media; type: cell-based, mouse; design: key: +: induction; −: no induction; conditions: antibodies 10 μg·ml−1
Protocol: as §2, §3, §4, §5, §6

hDF and hCAF = assay: Matrix remodelling (collagen gel contraction) assay; type: cell-based, human; conditions: hLu-CAF and hBr-CAF cells, FIG. 6A
Protocol: as §4

hDF [4] = assay: LIF ELISA of TGFβ1-stimulated hDF culture medium; type: cell-based, human; conditions: after TGFβ1 stimulation
Protocol: For the quantitative determination of LIF protein levels secreted to the media, we used the human LIF ELISA Kit (#ELH-LIF-001, Raybiotech Inc, Norcross, Ga.) following manufacturer's specifications.
as §6

hDF [5] = assay: qRT-PCR of IL6 family cytokine genes in TGFβ1-stimulated hDF; type: cell-based, human; conditions: one hour after stimulation, relative to control (Veh)
Protocol: RNA was isolated from total cell lysates using RNeasy Mini kit (#217004, Qiagen, Turnberry Ln Valencia, Calif.) according to the manufacturer's instructions. Reverse Transcription was performed using 500 ng cytoplasmic RNA using Superscript II reverse transcriptase (#18064-014, Invitrogen, Carlsbad, Calif.). Real time PCR was performed using Fast SYBR Green Master Mix ([…]; Applied Biosystems, Foster City, Calif.) in duplicates according to the recommendations of the manufacturer on an ABI Prism 7900HT sequence detection system (Applied Biosystems, Foster City, Calif.). Relative expression of the respective gene was determined after normalization to GAPDH and calculated with the following formula: relative expression level=2ddCT

SMAD2 = SMAD2 phosphorylation in fibroblasts (western blot); type: cell-based, human; conditions: hDF stimulated by TGFβ1
Source text: as §1
For immunoblotting analysis, cells were lysed on ice in lysis buffer (25 mM Tris (pH 6.8), 2% Sodium dodecyl sulfate (SDS), 5% glycerol, 1% beta-mercaptoethanol, 0.01% bromophenol blue). Equal amounts of protein from each sample were loaded on sodium dodecyl sulfate-polyacrylamide gel electrophoresis, separated, and transferred onto nitrocellulose. […]

[6] = A375M2 CM (h. melanoma), antibodies 10 μg·ml−1, αLIF (50)
[7] = A375P CM (h. melanoma), antibodies 10 μg·ml−1
[8] = A549 CM (h. lung carcinoma), antibodies 10 μg·ml−1
[9] = CAL27 CM (human OSCC), antibodies 10 μg·ml−1, αLIF (50)
[10] = CAL33 CM (human OSCC), antibodies 10 μg·ml−1
[11] = CAL33_LIF CM (h. engineered cell line), antibodies 10 μg·ml−1, αLIF (50)
[12] = CAL33_mock CM (h. engineered cell line), antibodies 10 μg·ml−1
[13] = CAL60 CM (human OSCC), antibodies 10 μg·ml−1
[14] = CAL166 CM (human OSCC), antibodies 10 μg·ml−1
[15] = Detroit562 CM (human OSCC), antibodies 10 μg·ml−1
[16] = LS174 CM (h. colon carcinoma), antibodies 10 μg·ml−1
[17] = MDA-MB-231 CM (breast carcinoma), antibodies 10 μg·ml−1
[18] = MDA-MB-468 CM (breast carcinoma), antibodies 10 μg·ml−1
[19] = Mel501 CM (h. melanoma), antibodies 10 μg·ml−1
[20] = Mel1205 CM (h. melanoma), antibodies 10 μg·ml−1
[21] = SCC12 CM (human OSCC), antibodies 10 μg·ml−1
[22] = SCC13 CM (human OSCC), antibodies 10 μg·ml−1
[23] = SCC25 CM (human OSCC), antibodies 10 μg·ml−1
[24] = Sbcl2 CM (h. melanoma), antibodies 10 μg·ml−1
[25] = WM35 CM (h. melanoma), antibodies 10 μg·ml−1
[26] = WM278 CM (h. melanoma), antibodies 10 μg·ml−1
[27] = WM793 CM (h. melanoma), antibodies 10 μg·ml−1

Row | Compound | STAT3 phosphorylation induced by TGFβ1 (STAT3) | Fibroblasts contractile & pro-invasive phenotype (fibroblasts [2]; [6]) | Fibroblasts contractile & pro-invasive phenotype (fibroblasts [2]; [7]) | Fibroblasts contractile & pro-invasive phenotype (fibroblasts [2]; [8]) | Fibroblasts contractile & pro-invasive phenotype (fibroblasts [2]; [9]) | Fibroblasts contractile & pro-invasive phenotype (fibroblasts [2]; [10]) | Fibroblasts contractile & pro-invasive phenotype (fibroblasts [2]; [11]) | Fibroblasts contractile & pro-invasive phenotype (fibroblasts [2]; [12]) | Fibroblasts contractile & pro-invasive phenotype (fibroblasts [2]; [13]) | Fibroblasts contractile & pro-invasive phenotype (fibroblasts [2]; [14]) | Fibroblasts contractile & pro-invasive phenotype (fibroblasts [2]; [15]) | Fibroblasts contractile & pro-invasive phenotype (fibroblasts [2]; [16]) | Fibroblasts contractile & pro-invasive phenotype (fibroblasts [2]; [17]) | Fibroblasts contractile & pro-invasive phenotype (fibroblasts [2]; [18]) | Fibroblasts contractile & pro-invasive phenotype (fibroblasts [2]; [19]) | Fibroblasts contractile & pro-invasive phenotype (fibroblasts [2]; [20]) | Fibroblasts contractile & pro-invasive phenotype (fibroblasts [2]; [21]) | Fibroblasts contractile & pro-invasive phenotype (fibroblasts [2]; [22]) | Fibroblasts contractile & pro-invasive phenotype (fibroblasts [2]; [23]) | Fibroblasts contractile & pro-invasive phenotype (fibroblasts [2]; [24]) | other results
1 | CC(C)(C)c1nc2c3cc[nH]c(=O)c3c3cc(F)ccc3c2[nH]1 [P6, Pyridone 6] | blocked | − | − | − | − | − | − | − | − | − | − | − | − | − | − | − | − | − | − | − | fibronectin expression pattern (hDF [1]): slightly reduced; Fibroblasts contractile & pro-invasive phenotype (fibroblasts [2]; [25]): −; Fibroblasts contractile & pro-invasive phenotype (fibroblasts [2]; [26]): −; Fibroblasts contractile & pro-invasive phenotype (fibroblasts [2]; [27]): −; Fibroblasts contractile & pro-invasive phenotype (fibroblasts [2]; hPK CM, antibodies 10 μg·ml−1): −; Fibroblasts contractile & pro-invasive phenotype (fibroblasts [3]; 4T1 CM (murine breast carcinoma)): −; Fibroblasts contractile & pro-invasive phenotype (fibroblasts [3]; 4T07 CM (murine breast carcinoma)): −; Fibroblasts contractile & pro-invasive phenotype (fibroblasts [3]; 67NR CM (murine breast carcinoma)): −; Fibroblasts contractile & pro-invasive phenotype (fibroblasts [3]; 410.4 CM (murine breast carcinoma)): −; pro-invasive potential (matrix remodelling) of hCAF (hDF and hCAF): required JAK signalling to sustain their pro-invasive potential
2 | NC(=O)c1ccc(-c2nc(-c3ccc4c(c3)OCO4)c(-c3ccccn3)[nH]2)cc1 [SB431542] |  | + | + | + | + | − | + | − | + | + | + | + | + | + | − | + | + | + | + | − | Fibroblasts contractile & pro-invasive phenotype (fibroblasts [2]; [25]): +; Fibroblasts contractile & pro-invasive phenotype (fibroblasts [2]; [26]): +; Fibroblasts contractile & pro-invasive phenotype (fibroblasts [2]; [27]): +; Fibroblasts contractile & pro-invasive phenotype (fibroblasts [2]; hPK CM, antibodies 10 μg·ml−1): −
3 | C[C@@H](N)[C@H]1CC[C@H](C(=O)Nc2ccncc2)CC1 [Y27632] |  |  |  |  |  |  |  |  |  |  |  |  |  |  |  |  |  |  |  |  | pro-invasive fibroblast conversion induced by CAL33-LIF CM (fibroblasts [2]; CAL33-LIF CM): blocked; action of SCC12 and SCC13 CM (pro-invasive fibroblast activation) (fibroblasts [2]; SCC12 and SCC13 CM): completely abrogated
4 | TGFβ1: TGF beta-1 cytokine (#100-21, Peprotech), used at 2 ng·ml-1 |  |  |  |  |  |  |  |  |  |  |  |  |  |  |  |  |  |  |  |  | LIF in hDF cell culture medium, 24 h peak (hDF [4]): 200 pg/mL; increase of IL6 mRNA steady state levels (hDF [5]): 5 fold; increase of LIF mRNA steady state levels (hDF [5]): 100 fold
5 | siRNA GP130-IL6ST: siRNA targeting GP130-IL6ST (SEQ ID NO: 5 and 6), purchased from Dharmacon (chain 1 CUAAUUACAUUGUCUGGAA; chain 2 CUAAGGAGCAAUAUACUAU; listed as RNA, chemistry not given here) | hampered |  |  |  |  |  |  |  |  |  |  |  |  |  |  |  |  |  |  |  | SMAD2 activation by TGFβ1 (SMAD2): without affecting
